Patent US11382956B2, “Amylin analogues” (Zealand Pharma A/S, priority 2016, dated 2022)
Numbered stars: 1 amine (or outer) side, 2 acyl side, 3 side chain; on linkers, the order of the positions; unused ones are H or OH. Bridge positions count the residues as written; N and C are the ends. Square brackets hold non-standard residues; d marks the D form. Peptide text beside a SMILES is read from it. * marks the point of attachment. C20 diacid = O=C(O)CCCCCCCCCCCCCCCCCCC(=O)*; γGlu = O=C(O)[C@H](CCC(=O)[*:2])N[*:1]; Hyp = O=C(O)[C@@H]1C[C@@H](O)CN1; NMeI = CC[C@H](C)[C@H](NC)C(=O)O; Aad = N[C@@H](CCCC(=O)O)C(=O)O; Sar = CNCC(=O)O

Experiments:
[1] = target: T1, recombinant human amylin 3 receptor (hAMYR3) (Homo sapiens, UniProt O60896+P30988); assay: hAMYR3 cAMP assay (AlphaScreen) in 1321N1 cells; assay type: cell-based; conditions: cAMP formation, 45 min stimulation
T1 construct: host or cells: human astrocytoma cell line 1321N1
T1 sequence (P30988 25-474): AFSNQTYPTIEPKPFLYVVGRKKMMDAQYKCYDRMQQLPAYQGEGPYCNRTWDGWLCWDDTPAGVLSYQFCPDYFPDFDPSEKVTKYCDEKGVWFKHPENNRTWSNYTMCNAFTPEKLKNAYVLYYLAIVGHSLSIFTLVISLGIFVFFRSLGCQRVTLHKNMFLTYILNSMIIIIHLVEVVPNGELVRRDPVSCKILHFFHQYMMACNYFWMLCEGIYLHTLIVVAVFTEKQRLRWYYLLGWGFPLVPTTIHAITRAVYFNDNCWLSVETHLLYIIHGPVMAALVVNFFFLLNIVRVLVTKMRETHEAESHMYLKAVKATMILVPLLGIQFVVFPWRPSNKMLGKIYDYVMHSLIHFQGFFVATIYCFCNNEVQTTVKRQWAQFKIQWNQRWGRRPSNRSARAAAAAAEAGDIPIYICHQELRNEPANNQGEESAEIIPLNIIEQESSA
T1 sequence (O60896 24-148 partner): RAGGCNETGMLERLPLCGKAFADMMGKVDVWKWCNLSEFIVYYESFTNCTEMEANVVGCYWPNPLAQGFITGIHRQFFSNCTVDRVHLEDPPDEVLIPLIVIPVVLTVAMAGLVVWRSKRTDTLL
In short: (§1)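 EC50 values come from curve fits over at least 7 peptide concentrations, with cAMP read by AlphaScreen competition after 1 h in the dark. Cells were 1321N1 lines carrying human calcitonin receptor, with RAMP3 co-expressed for AMY3, treated 45 min at room temperature in the presence of IBMX.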

[2] = Assessment of physical stability: fibril formation by Thioflavin T fluorescence; assay type: physicochemical; set-up: key: FND = fibrillation not detected; FD = fibrillation detected; conditions: 1 mg/mL peptide; for Fibrillation (in buffer) pH4 acetate: 50 mM acetate buffer pH 4.0, 96 hours at 40° C.; for Fibrillation (in buffer) pH7 histidine: 50 mM histidine buffer pH 7.0, 96 hours at 40° C.; for Fibrillation (in buffer) pH7 phosphate: 50 mM phosphate buffer pH 7.0, 96 hours at 40° C.
In short: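 Fibrillation detected (FD) means a significant rise in ThT fluorescence over 96 hours at 40° C, read at 10 min intervals each preceded by 300 s automixing. Samples: 1 mg/mL peptide, 40 μM ThT, in 50 mM phosphate or histidine (pH 7.0) or acetate (pH 4.0), triplicate.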

[3] = Effect on acute food intake and body weight in normal Sprague Dawley rats; assay type: in vivo, Sprague Dawley (SD) rats; conditions: Dose: 30 nmol/kg sc, vehicle-corrected
Source text: Sprague Dawley (SD) rats were obtained from Janvier Labs, France. The animals arrived at least 14 days before the study start to allow acclimatization to experimental conditions. From arrival and throughout the study, the rats were housed in groups of 2 to 4 (n=2-4) in a light-, temperature- and humidity-controlled room. Animals had access ad libitum to food (KLIBA 3430, Provimi Kliba AG, Switzerland) and water (domestic quality tap water) during the entire study. Per group 6-8 rats were included. A vehicle group and positive control group were included in each set of tests. […] Dosing volume was 2 ml/kg. Food intake was recorded online using an automated food intake system (HM02, MBRose, Denmark) for 4 days or manually at 0 h for a predose and then 24, 48, 72 and 96 h post dosing. Body weight was measured daily.
Statistical analyses were performed using GraphPad™ Prism version 7. The measured parameters were compared using two-way ANOVA followed by Dunnett's multiple comparison tests. Differences were considered statistically significant at p<0.05.

[4] = target: T2, recombinant human calcitonin receptor (hCT-R) (Homo sapiens, UniProt P30988); assay: hCT-R cAMP assay (AlphaScreen) in 1321N1 cells; assay type: cell-based; conditions: cAMP formation, 45 min stimulation
T2 construct: host or cells: human astrocytoma cell line 1321N1
T2 sequence (P30988 25-474): T1 sequence (P30988 25-474)
In short: as §1

[5] = Assessment of chemical stability in 40 mM buffers at 40° C. (RP-HPLC); assay type: physicochemical; conditions: 1 mg/mL; for % degradation after 14 days at 40° C. pH6 phosphate: phosphate buffer pH 6, 14 days
In short: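 Degradation is the main-peak area-% at each time point minus that at t=0, measured by C8 reversed-phase HPLC (TFA/acetonitrile/water gradient, 220 nm). Incubation at 40° C for 3 or 14 days, 1 mg/mL peptide in 40 mM buffer at pH 4, 6 or 7.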

Row | SMILES | EC50 [1] [nM] | Fibrillation (in buffer) pH4 acetate [2] | Fibrillation (in buffer) pH7 histidine [2] | Fibrillation (in buffer) pH7 phosphate [2] | Body weight reduction in % at 48 h [3] [%] | Food intake reduction in % at 48 h [3] [%] | EC50 [4] [nM] | % degradation after 72 h at 40° C. pH4 acetate ([5]; acetate buffer pH 4, 72 h) [%] | % degradation after 72 h at 40° C. pH6 phosphate ([5]; phosphate buffer pH 6, 72 h) [%] | % degradation after 72 h at 40° C. pH7 phosphate ([5]; phosphate buffer pH 7, 72 h) [%] | % degradation after 14 days at 40° C. pH6 phosphate [5] [%] | % degradation after 14 days at 40° C. pH4 acetate ([5]; acetate buffer pH 4, 14 days) [%] | % degradation after 14 days at 40° C. pH7 phosphate ([5]; phosphate buffer pH 7, 14 days) [%]
1 | CC[C@H](C)[C@@H](C(=O)N1CCC[C@H]1C(=O)N[C@@H](CO)C(=O)N[C@@H](CO)C(=O)N[C@H](C(=O)N[C@@H](CCC(=O)O)C(=O)N[C@H](C(=O)NCC(=O)N[C@@H](CO)C(=O)N[C@@H](CC(N)=O)C(=O)N[C@H](C(=O)N1C[C@H](O)C[C@H]1C(N)=O)[C@@H](C)O)C(C)C)[C@@H](C)O)N(C)C(=O)[C@H](C)NC(=O)CN(C)C(=O)[C@H](Cc1ccccc1)NC(=O)[C@H](CO)NC(=O)[C@H](CO)NC(=O)[C@H](CCCNC(=N)N)NC(=O)[C@H](CCC(N)=O)NC(=O)[C@H](CC(C)C)NC(=O)[C@H](Cc1ccccc1)NC(=O)[C@H](Cc1c[nH]cn1)NC(=O)[C@H](C)NC(=O)[C@H](CC(C)C)NC(=O)[C@H](CCCNC(=N)N)NC(=O)[C@H](CCC(N)=O)NC(=O)[C@@H](NC(=O)[C@H](C)NC(=O)[C@@H]1CCCCNC(=O)C[C@H](NC(=O)[C@H](CCCNC(=N)N)NC(=O)CC[C@H](NC(=O)CCCCCCCCCCCCCCCCCCC(=O)O)C(=O)O)C(=O)NCC(=O)N[C@@H]([C@@H](C)O)C(=O)N[C@@H](C)C(=O)N[C@@H]([C@@H](C)O)C(=O)N1)[C@@H](C)O [Compound 15, [19CD]-isoGlu-RD()GTATK()ATQRLAHFLQRSSF-Gly(Me)-A-Ile(Me)-PSSTEVGSNT-Hyp-NH2] ({C20 diacid-γGlu}-RDGTATKATQRLAHFLQRSSF[Sar]A[NMeI]PSSTEVGSNT[Hyp]-NH2; lactam 2-7) | 0.017 | FND | FD | FD | 7.7 | 71 | 0.056 | <1 | <1 | <1 |  |  | 
2 | CC[C@H](C)[C@@H](C(=O)N[C@@H](CC(C)C)C(=O)N[C@@H](CO)C(=O)N[C@@H](CO)C(=O)N[C@H](C(=O)N[C@@H](CCC(=O)O)C(=O)N[C@H](C(=O)NCC(=O)N[C@@H](CO)C(=O)N[C@@H](CC(N)=O)C(=O)N[C@H](C(=O)N1C[C@H](O)C[C@H]1C(N)=O)[C@@H](C)O)C(C)C)[C@@H](C)O)N(C)C(=O)[C@H](C)NC(=O)CN(C)C(=O)[C@H](Cc1ccccc1)NC(=O)[C@H](CO)NC(=O)[C@H](CO)NC(=O)[C@H](CCCNC(=N)N)NC(=O)[C@H](CCC(N)=O)NC(=O)[C@H](CC(C)C)NC(=O)[C@H](Cc1ccccc1)NC(=O)[C@H](Cc1c[nH]cn1)NC(=O)[C@H](C)NC(=O)[C@H](CC(C)C)NC(=O)[C@H](CCCNC(=N)N)NC(=O)[C@H](CCC(N)=O)NC(=O)[C@@H](NC(=O)[C@H](C)NC(=O)[C@@H]1CCCCNC(=O)C[C@H](NC(=O)[C@H](CCCNC(=N)N)NC(=O)CC[C@H](NC(=O)CCCCCCCCCCCCCCCCCCC(=O)O)C(=O)O)C(=O)NCC(=O)N[C@@H]([C@@H](C)O)C(=O)N[C@@H](C)C(=O)N[C@@H]([C@@H](C)O)C(=O)N1)[C@@H](C)O [Compound 16, [19CD]-isoGlu-RD()GTATK()ATQRLAHFLQRSSF-Gly(Me)-A-Ile(Me)-LSSTEVGSNT-Hyp-NH2] ({C20 diacid-γGlu}-RDGTATKATQRLAHFLQRSSF[Sar]A[NMeI]LSSTEVGSNT[Hyp]-NH2; lactam 2-7) | 0.035 |  |  |  | 7.4 | 66 | 0.043 |  |  |  | <1 |  | 
3 | CC[C@H](C)[C@@H](C(=O)N1CCC[C@H]1C(=O)N[C@@H](CO)C(=O)N[C@@H](CO)C(=O)N[C@H](C(=O)N[C@@H](CCC(=O)O)C(=O)N[C@H](C(=O)NCC(=O)N[C@@H](CO)C(=O)N[C@@H](CC(N)=O)C(=O)N[C@H](C(=O)N1C[C@H](O)C[C@H]1C(N)=O)[C@@H](C)O)C(C)C)[C@@H](C)O)N(C)C(=O)[C@H](C)NC(=O)CN(C)C(=O)[C@H](Cc1ccccc1)NC(=O)[C@H](CO)NC(=O)[C@H](CO)NC(=O)[C@H](CCCNC(=N)N)NC(=O)[C@H](CCC(N)=O)NC(=O)[C@H](CC(C)C)NC(=O)[C@H](Cc1ccccc1)NC(=O)[C@H](CCCC(=O)O)NC(=O)[C@H](C)NC(=O)[C@H](CC(C)C)NC(=O)[C@H](CCCNC(=N)N)NC(=O)[C@H](CCC(=O)O)NC(=O)[C@@H](NC(=O)[C@H](C)NC(=O)[C@@H]1CCCCNC(=O)C[C@H](NC(=O)[C@H](CCC(=O)O)NC(=O)CC[C@H](NC(=O)CCCCCCCCCCCCCCCCCCC(=O)O)C(=O)O)C(=O)NCC(=O)N[C@@H]([C@@H](C)O)C(=O)N[C@@H](C)C(=O)N[C@@H]([C@@H](C)O)C(=O)N1)[C@@H](C)O [Compound 30, [19CD]-isoGlu-ED()GTATK()ATERLA-Aad-FLQRSSF-Gly(Me)-A-Ile(Me)-PSSTEVGSNT-Hyp-NH2] ({C20 diacid-γGlu}-EDGTATKATERLA[Aad]FLQRSSF[Sar]A[NMeI]PSSTEVGSNT[Hyp]-NH2; lactam 2-7) | 0.122 | FD | FND | FND | 0 | <20 | 0.232 |  |  |  |  |  | 
4 | CC[C@H](C)[C@@H](C(=O)N[C@@H](CC(C)C)C(=O)N[C@@H](CO)C(=O)N[C@@H](CO)C(=O)N[C@H](C(=O)N[C@@H](CCC(=O)O)C(=O)N[C@H](C(=O)NCC(=O)N[C@@H](CO)C(=O)N[C@@H](CC(N)=O)C(=O)N[C@H](C(=O)N1C[C@H](O)C[C@H]1C(N)=O)[C@@H](C)O)C(C)C)[C@@H](C)O)N(C)C(=O)[C@H](C)NC(=O)CN(C)C(=O)[C@H](Cc1ccccc1)NC(=O)[C@H](CO)NC(=O)[C@H](CO)NC(=O)[C@H](CCCNC(=N)N)NC(=O)[C@H](CCC(N)=O)NC(=O)[C@H](CC(C)C)NC(=O)[C@H](Cc1ccccc1)NC(=O)[C@H](CC(=O)O)NC(=O)[C@H](C)NC(=O)[C@H](CC(C)C)NC(=O)[C@H](CCCNC(=N)N)NC(=O)[C@H](CCC(N)=O)NC(=O)[C@@H](NC(=O)[C@H](C)NC(=O)[C@@H]1CSSC[C@H](NC(=O)[C@H](CCCNC(=N)N)NC(=O)CC[C@H](NC(=O)CCCCCCCCCCCCCCCCCCC(=O)O)C(=O)O)C(=O)N[C@@H](CC(N)=O)C(=O)N[C@@H]([C@@H](C)O)C(=O)N[C@@H](C)C(=O)N[C@@H]([C@@H](C)O)C(=O)N1)[C@@H](C)O [Ref. 5, [19CD]-isoGlu-RC()NTATC()ATQRLADFLQRSSF-Sar-A-Ile(Me)-LSSTEVGSNT-Hyp-NH2, reference compound] ({C20 diacid-γGlu}-RCNTATCATQRLADFLQRSSF[Sar]A[NMeI]LSSTEVGSNT[Hyp]-NH2; disulfide 2-7) | 0.028 | FD | FND | FND |  |  | 0.063 |  |  |  | 5.1 | 3.0 | 12.7
